Measurements reported in ChEMBL document CHEMBL3259581 (Eur J Med Chem, 2014).

Assays:
[1] = target: T1, Prostaglandin G/H synthase 1 (Ovis aries, UniProt P05979); assay: Inhibition of ovine COX1 using arachidonic acid as substrate preincubated for 10 mins before substrate addition measured after 5 mins by EIA
T1 sequence (P05979 whole entry): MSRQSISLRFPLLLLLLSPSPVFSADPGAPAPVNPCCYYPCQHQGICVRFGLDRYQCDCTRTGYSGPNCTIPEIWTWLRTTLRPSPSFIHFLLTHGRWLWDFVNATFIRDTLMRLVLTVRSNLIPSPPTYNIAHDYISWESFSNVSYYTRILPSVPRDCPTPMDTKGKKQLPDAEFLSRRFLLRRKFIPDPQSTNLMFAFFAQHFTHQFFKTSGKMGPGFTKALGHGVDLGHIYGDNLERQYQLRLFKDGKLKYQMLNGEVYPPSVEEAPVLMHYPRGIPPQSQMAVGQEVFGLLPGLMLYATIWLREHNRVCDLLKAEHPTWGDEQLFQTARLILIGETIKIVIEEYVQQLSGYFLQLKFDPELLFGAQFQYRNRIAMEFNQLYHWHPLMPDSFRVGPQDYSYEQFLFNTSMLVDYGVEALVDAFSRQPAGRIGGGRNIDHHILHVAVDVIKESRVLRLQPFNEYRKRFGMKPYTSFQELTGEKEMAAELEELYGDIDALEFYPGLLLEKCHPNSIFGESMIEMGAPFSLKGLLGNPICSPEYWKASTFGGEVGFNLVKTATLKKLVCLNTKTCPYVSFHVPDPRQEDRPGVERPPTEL

[2] = target: T2, Prostaglandin G/H synthase 1 (Ovis aries) (UniProt P05979); assay: Inhibition of ovine COX1 using arachidonic acid as substrate at 30 uM preincubated for 10 mins before substrate addition measured after 5 mins by EIA
T2 sequence (whole entry): T1 sequence (P05979 whole entry)

[3] = tested on: Rattus norvegicus; assay: Antiinflammatory activity in Sprague-Dawley rat assessed as inhibition of carrageenan-induced paw edema at 150 umol/kg, po administered 1 hr before carrageenan challenge measured after 5 hrs; format: functional
[4] = tested on: Rattus norvegicus; assay: Antiinflammatory activity in Sprague-Dawley rat assessed as inhibition of carrageenan-induced paw edema at 150 umol/kg, po administered 1 hr before carrageenan challenge measured after 3 hrs; format: functional
[5] = target: T3, Prostaglandin G/H synthase 2 (Ovis aries) (UniProt P79208); conditions: 30 uM
T3 sequence (whole entry): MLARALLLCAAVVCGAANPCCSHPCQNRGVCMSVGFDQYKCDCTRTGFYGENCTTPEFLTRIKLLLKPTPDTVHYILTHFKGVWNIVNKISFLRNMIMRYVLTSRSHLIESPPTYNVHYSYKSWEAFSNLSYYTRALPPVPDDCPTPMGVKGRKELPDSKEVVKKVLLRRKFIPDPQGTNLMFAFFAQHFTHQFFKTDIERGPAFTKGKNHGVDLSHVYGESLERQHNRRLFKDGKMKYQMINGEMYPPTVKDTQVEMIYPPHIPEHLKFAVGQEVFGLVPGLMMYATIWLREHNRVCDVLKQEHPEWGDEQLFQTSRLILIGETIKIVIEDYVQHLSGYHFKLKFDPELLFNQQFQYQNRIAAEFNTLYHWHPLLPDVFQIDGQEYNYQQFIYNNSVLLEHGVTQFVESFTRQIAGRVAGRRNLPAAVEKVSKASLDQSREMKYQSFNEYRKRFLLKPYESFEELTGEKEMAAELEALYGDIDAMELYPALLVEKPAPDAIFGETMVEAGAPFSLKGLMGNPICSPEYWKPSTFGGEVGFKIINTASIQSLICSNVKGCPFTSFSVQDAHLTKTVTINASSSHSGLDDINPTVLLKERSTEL
Description: Inhibition of ovine COX2 using arachidonic acid as substrate at 30 uM preincubated for 10 mins before substrate addition measured after 5 mins by EIA

| SMILES | IC50 [1] [µM] | inhibition [2] [%] | inhibition [5] [%] | inhibition in vivo at 150 µmol/kg [3] [%] | inhibition in vivo at 150 µmol/kg [4] [%] |
| --- | --- | --- | --- | --- | --- |
| Cc1cc(OCc2ccccc2)c2c(c1)C(=O)c1cccc(OCc3ccccc3)c1C2=O | > 30 | 41.4 | 76.5 | 45.1 | 28.2 |
| Cc1cc(OCc2cccc(Cl)c2)c2c(c1)C(=O)c1cccc(OCc3cccc(Cl)c3)c1C2=O | – | 25.4 | 61 | – | – |
| COc1cccc2c1C(=O)c1c(OC)cc(C)cc1C2=O | – | 59.2 | 62.1 | – | – |
| Cc1cc(OCc2ccc(I)cc2)c2c(c1)C(=O)c1cccc(OCc3ccc(I)cc3)c1C2=O | > 30 | 64.2 | 77.8 | 54.6 | 36.1 |
| Cc1cc(OCc2ccccc2Br)c2c(c1)C(=O)c1cccc(OCc3ccccc3Br)c1C2=O | – | 27.2 | 62 | – | – |
| CCCOc1cccc2cc(C)c(C(C)=O)c(O)c12 | – | 53.5 | 35.4 | – | – |
| CC(C)Cc1ccc(C(C)C(=O)O)cc1 (stereo not drawn) [IBUPROFEN] | – | – | – | 43.5 | 32.3 |
| COc1cccc2cc(C)c(C(C)=O)c(O)c12 | – | 69.8 | 61.7 | – | – |
| C=CCOc1cccc2c1C(=O)c1c(OCC=C)cc(C)cc1C2=O | > 30 | 44.3 | 81.5 | 50.9 | 35.6 |
| CCCOc1cccc2c1C(=O)c1c(OCCC)cc(C)cc1C2=O | – | 39.6 | 58.7 | – | – |
| COCOc1cccc2cc(C)c(C(C)=O)c(O)c12 | 17.2 | 80.6 | 75 | 55.8 | 36.4 |
| CCCCOc1cccc2c1C(=O)c1c(OCCCC)cc(C)cc1C2=O | – | 26 | 42 | – | – |
| CC(=O)c1c(C)cc2cccc(OC(C)C)c2c1O | – | 70.9 | 62.6 | – | – |
| Cc1cc(O)c2c(c1)C(=O)c1cccc(O)c1C2=O [CHRYSOPHANOL] | 46.2 | 29.4 | 42.1 | – | – |
| CCOc1cccc2cc(C)c(C(C)=O)c(O)c12 | – | 62.1 | 54.2 | – | – |
| CCOc1cccc2c1C(=O)c1c(OCC)cc(C)cc1C2=O | – | 43.7 | 55.5 | – | – |
| CCCCOc1cccc2cc(C)c(C(C)=O)c(O)c12 | – | 28.5 | 31.9 | – | – |

Second part, led by results:

| IC50 [1] [µM] | inhibition [2] [%] | inhibition [5] [%] | SMILES | inhibition in vivo at 150 µmol/kg [3] [%] | inhibition in vivo at 150 µmol/kg [4] [%] |
| --- | --- | --- | --- | --- | --- |
| 24.5 | 63.6 | 83.1 | CC(=O)c1c(C)cc2cccc(OCc3ccccc3Br)c2c1O | 46.5 | 25.5 |
| – | 58.4 | 42.9 | CCOc1c(C(C)=O)c(C)cc2cccc(O)c12 | – | – |
| – | 34.9 | 64.9 | CC(=O)c1c(C)cc2cccc(O)c2c1OCc1cccc(Cl)c1 | – | – |
| 15.2 | 83.4 | 89.9 | CC(=O)c1c(C)cc2cccc(OCc3ccccc3)c2c1O | 54.2 | 30.3 |
| – | 60.2 | 68.2 | CC(=O)c1c(C)cc2cccc(O)c2c1OCc1ccccc1 | – | – |
| – | 40.2 | 37.9 | CCCCOc1c(C(C)=O)c(C)cc2cccc(O)c12 | – | – |
| – | 51.4 | 47 | CCCOc1c(C(C)=O)c(C)cc2cccc(O)c12 | – | – |
| 27.4 | 68.2 | 59.4 | CC(=O)c1c(C)cc2cccc(O)c2c1O [NEPODIN] | – | – |
| – | 67.1 | 61.5 | COCOc1c(C(C)=O)c(C)cc2cccc(O)c12 | – | – |
| – | 62.2 | 54.9 | CC(=O)c1c(C)cc2cccc(O)c2c1OC(C)C | – | – |
| 22.2 | 67.1 | 82.1 | CC(=O)c1c(C)cc2cccc(OCc3cccc(Cl)c3)c2c1O | 37 | 26.6 |
| – | 37.2 | 67.5 | CC(=O)c1c(C)cc2cccc(O)c2c1OCc1ccccc1Br | – | – |
| – | 65.5 | 55.5 | COc1c(C(C)=O)c(C)cc2cccc(O)c12 | – | – |
